Measurements reported in the supplement of paper PMC11061612.

Legend:
Assay in all cases: combination Emax (second highest fraction inhibited in the dose matrix, 72 h); higher = more inhibition; extreme values may be limits of the assay
[1] = test system: COR-L88 (Small Cell Lung Carcinoma)
Procedure, shortened: (§1)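 Cell lines in DMEM/F12 or RPMI with 10% FBS were plated in 1536-well plates, held 24 hours at 37°C, 5% CO2, then given two-drug dose matrices for 72 hours (DMSO typically 0.2%). Viability was read by CellTiter-Glo 2.0 luminescence and scaled as inhibition from 0 (vehicle wells) to 1 (blank wells). Combination Emax is the second-highest inhibition in the matrix; Bliss excess is observed combination effect minus expected EA + EB − EA·EB, EA and EB being single-agent effects.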

[2] = test system: C-33-A (Cervical Carcinoma)
Procedure, shortened: as §1

[3] = test system: NAMALWA (Burkitt's Lymphoma)
Procedure, shortened: as §1

[4] = test system: NCI-H3118 (Head and Neck Carcinoma)
Procedure, shortened: as §1

[5] = test system: MDA-MB-415 (Breast Carcinoma)
Procedure, shortened: as §1

[6] = test system: LCLC-103H (Non-Small Cell Lung Carcinoma)
Procedure, shortened: as §1

[7] = test system: MS-1 (Small Cell Lung Carcinoma)
Procedure, shortened: as §1

[8] = test system: HPAF-II (Pancreatic Carcinoma)
Procedure, shortened: as §1

[9] = test system: SKG-IIIa (Cervical Carcinoma)
Procedure, shortened: as §1

[10] = test system: SNU-423 (Hepatocellular Carcinoma)
Procedure, shortened: as §1

KALS-1 (Glioblastoma) = test system: KALS-1 (Glioblastoma)
Procedure, shortened: as §1

[11] = test system: IA-LM (Non-Small Cell Lung Carcinoma)
Procedure, shortened: as §1

GAK (Melanoma) = test system: GAK (Melanoma)
Procedure, shortened: as §1

ES6 (Ewing's Sarcoma) = test system: ES6 (Ewing's Sarcoma)
Procedure, shortened: as §1

IST-MEL1 (Melanoma) = test system: IST-MEL1 (Melanoma)
Procedure, shortened: as §1

[12] = test system: T84 (Colorectal Carcinoma)
Procedure, shortened: as §1

[13] = test system: RCC-JW (Kidney Carcinoma)
Procedure, shortened: as §1

[14] = test system: BxPC-3 (Pancreatic Carcinoma)
Procedure, shortened: as §1

[15] = test system: MONO-MAC-6 (Acute Myeloid Leukemia)
Procedure, shortened: as §1

[16] = test system: ZR-75-30 (Breast Carcinoma)
Procedure, shortened: as §1

| SMILES | combination Emax [1] | combination Emax [2] | combination Emax [3] | combination Emax [4] | combination Emax [5] | combination Emax [6] | combination Emax [7] | combination Emax [8] | combination Emax [9] | combination Emax [10] | combination Emax (KALS-1 (Glioblastoma)) | combination Emax [11] | combination Emax (GAK (Melanoma)) | combination Emax (ES6 (Ewing's Sarcoma)) | combination Emax (IST-MEL1 (Melanoma)) | combination Emax [12] | combination Emax [13] | combination Emax [14] | combination Emax [15] | combination Emax [16] |
| --- | --- | --- | --- | --- | --- | --- | --- | --- | --- | --- | --- | --- | --- | --- | --- | --- | --- | --- | --- | --- |
| C[C@@H](Nc1cc(F)cc(F)c1)c1cc(C(=O)N(C)C)cc2c(=O)cc(N3CCOCC3)oc12 [AZD8186] + CC(=O)c1c(C)c2cnc(Nc3ccc(N4CCNCC4)cn3)nc2n(C2CCCC2)c1=O [Palbociclib] (first compound max 10 µM, 7x7, partner max 10 µM) | 0.201 | 0.353 | 0.616 | 0.568 | 0.794 | 0.476 | 0.295 | 0.466 | 0.235 | 0.454 | 0.38 | 0.311 | 0.448 | 0.412 | 0.545 | 0.235 | 0.588 | 0.347 | 0.654 | 0.336 |
| C[C@@H](Oc1cc(-c2cnn(C3CCNCC3)c2)cnc1N)c1c(Cl)ccc(F)c1Cl [Crizotinib] + CC1=C(C(=CC=C1)Cl)NC(=O)C2=CN=C(S2)NC3=CC(=NC(=N3)C)N4CCN(CC4)CCO [Dasatinib] (first compound max 10 µM, 7x7, partner max 2 µM) | 0.435 | 0.582 | 0.934 | 0.881 | 0.323 | 0.722 | 0.686 | 0.431 | 0.734 | 0.934 | 0.925 | 0.601 | 0.694 | 0.751 | 0.76 | 0.58 | 0.851 | 0.938 | 0.947 | 0.036 |
| C[C@@H](Oc1cc(-c2cnn(C3CCNCC3)c2)cnc1N)c1c(Cl)ccc(F)c1Cl [Crizotinib] + Cn1cnc2c(F)c(Nc3ccc(Br)cc3Cl)c(C(=O)NOCCO)cc21 [Selumetinib] (first compound max 10 µM, 7x7, partner max 10 µM) | 0.409 | 0.421 | 0.937 | 0.627 | 0.275 | 0.412 | 0.791 | 0.687 | 0.254 | 0.823 | 0.538 | 0.245 | 0.851 | 0.59 | 0.454 | 0.576 | 0.665 | 0.439 | 0.991 | 0.0695 |
| CS(=O)(=O)CCNCc1ccc(-c2ccc3ncnc(Nc4ccc(OCc5cccc(F)c5)c(Cl)c4)c3c2)o1 [Lapatinib] + Cn1cnc2c(F)c(Nc3ccc(Br)cc3Cl)c(C(=O)NOCCO)cc21 [Selumetinib] (first compound max 10 µM, 7x7, partner max 10 µM) | 0.215 | 0.55 | 0.419 | 0.653 | 0.389 | 0.309 | 0.489 | 0.877 | 0.393 | 0.508 | 0.575 | 0.318 | 0.722 | 0.553 | 0.543 | 0.763 | 0.988 | 0.909 | 0.437 | 0.807 |
| CS(=O)(=O)CCNCc1ccc(-c2ccc3ncnc(Nc4ccc(OCc5cccc(F)c5)c(Cl)c4)c3c2)o1 [Lapatinib] + NC1(c2ccc(-c3nc4ccn5c(=O)[nH]nc5c4cc3-c3ccccc3)cc2)CCC1 [MK-2206] (first compound max 10 µM, 7x7, partner max 10 µM) | 0.812 | 0.895 | 0.909 | 0.783 | 0.972 | 0.538 | 0.926 | 0.402 | 0.36 | 0.912 | 0.718 | 0.487 | 0.872 | 0.879 | 0.886 | 0.832 | 0.964 | 0.614 | 0.671 | 0.912 |
| O=C(c1cc(Cc2n[nH]c(=O)c3ccccc23)ccc1F)N1CCN(C(=O)C2CC2)CC1 [Olaparib] + CC1(C)CCC(CN2CCN(c3ccc(C(=O)NS(=O)(=O)c4ccc(NCC5CCOCC5)c([N+](=O)[O-])c4)c(Oc4cnc5[nH]ccc5c4)c3)CC2)=C(c2ccc(Cl)cc2)C1 [Venetoclax] (first compound max 10 µM, 7x7, partner max 1 µM) | 0.373 | 0.305 | 0.456 | 0.153 | 0.179 | 0.155 | 0.453 | 0.119 | 0.147 | 0.115 | 0.118 | 0.155 | 0.0703 | 0.173 | 0.628 | 0.065 | 0.163 | 0.148 | 0.249 | 0.158 |
